Laboratory results reported in ChEMBL document CHEMBL1909294, “Translating clinical findings into knowledge in drug safety evaluation--drug induced liver injury prediction system (DILIps)” (PLoS Comput Biol, 2011).

How the values were obtained:
[1] = tested on: Hepatotoxicity;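 as to HepSE cholelithiasis: hepatic side effect score for cholelithiasis, drawn from the DILIps training data for predicting drug-induced liver injury; call rule not given here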; as to HepSE hepatic failure: call rule not given here;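 as to HepSE hepatitis: Hepatitis-related hepatic side effect score taken from the training data of DILIps, a prediction system for drug-induced liver injury; call rule not given here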;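 as to HepSE hepatomegaly: hepatic side effect score for hepatomegaly, taken from the training set of the DILIps drug-induced liver injury prediction system; call rule not given here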;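 as to HepSE jaundice: Jaundice-related hepatic side-effect score drawn from the training data of the DILIps (drug-induced liver injury prediction system); call rule not given here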; as to HepSE liver disease: call rule not given here;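 as to HepSE liver function tests abnormal: hepatic side effect score taken from the DILIps (drug-induced liver injury prediction system) training data, here covering abnormal liver function test findings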
[2] = tested on: Hepatotoxicity; remark: listed apart in the source;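 as to HepSE cholelithiasis: hepatic side effect score for cholelithiasis, drawn from the DILIps training data for predicting drug-induced liver injury; call rule not given here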; as to HepSE hepatic failure: call rule not given here;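 as to HepSE hepatitis: Hepatitis-related hepatic side effect score taken from the training data of DILIps, a prediction system for drug-induced liver injury; call rule not given here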;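 as to HepSE hepatomegaly: hepatic side effect score for hepatomegaly, taken from the training set of the DILIps drug-induced liver injury prediction system; call rule not given here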;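 as to HepSE jaundice: Jaundice-related hepatic side-effect score drawn from the training data of the DILIps (drug-induced liver injury prediction system); call rule not given here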; as to HepSE liver disease: call rule not given here;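 as to HepSE liver function tests abnormal: hepatic side effect score taken from the DILIps (drug-induced liver injury prediction system) training data, here covering abnormal liver function test findings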
[3] = tested on: Hepatotoxicity; remark: listed apart in the source;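 as to HepSE cholelithiasis: hepatic side effect score for cholelithiasis, drawn from the DILIps training data for predicting drug-induced liver injury; call rule not given here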; as to HepSE hepatic failure: call rule not given here;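 as to HepSE hepatitis: Hepatitis-related hepatic side effect score taken from the training data of DILIps, a prediction system for drug-induced liver injury; call rule not given here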;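 as to HepSE hepatomegaly: hepatic side effect score for hepatomegaly, taken from the training set of the DILIps drug-induced liver injury prediction system; call rule not given here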; as to HepSE liver disease: call rule not given here;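 as to HepSE liver function tests abnormal: hepatic side effect score taken from the DILIps (drug-induced liver injury prediction system) training data, here covering abnormal liver function test findings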
[4] = tested on: Hepatotoxicity; remark: listed apart in the source;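 as to HepSE cholelithiasis: hepatic side effect score for cholelithiasis, drawn from the DILIps training data for predicting drug-induced liver injury; call rule not given here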; as to HepSE hepatic failure: call rule not given here;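 as to HepSE hepatitis: Hepatitis-related hepatic side effect score taken from the training data of DILIps, a prediction system for drug-induced liver injury; call rule not given here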;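 as to HepSE hepatomegaly: hepatic side effect score for hepatomegaly, taken from the training set of the DILIps drug-induced liver injury prediction system; call rule not given here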; as to HepSE liver disease: call rule not given here;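 as to HepSE liver function tests abnormal: hepatic side effect score taken from the DILIps (drug-induced liver injury prediction system) training data, here covering abnormal liver function test findings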
[5] = tested on: Hepatotoxicity; remark: listed apart in the source; as to HepSE hepatic failure: call rule not given here; as to HepSE liver disease: call rule not given here
[6] = tested on: Hepatotoxicity; remark: listed apart in the source; as to HepSE hepatic failure: call rule not given here; as to HepSE liver disease: call rule not given here
[7] = tested on: Hepatotoxicity; remark: listed apart in the source
[8] = tested on: Hepatotoxicity; remark: listed apart in the source
[9] = tested on: Hepatotoxicity; remark: listed apart in the source
[10] = tested on: Hepatotoxicity; remark: listed apart in the source
[11] = tested on: Hepatotoxicity; remark: listed apart in the source
[12] = tested on: Hepatotoxicity; remark: listed apart in the source
[13] = tested on: Hepatotoxicity; remark: listed apart in the source
[14] = tested on: Hepatotoxicity; remark: listed apart in the source

Structure (SMILES): O=C(O[C@H]1C[C@H]2CC[C@@H](C1)[N+]21CCCC1)C(O)(c1ccccc1)c1ccccc1.[Cl-] [TROSPIUM CHLORIDE]
- HepSE_hepatic failure [1]: 0
- HepSE_hepatitis [2]: 0
- HepSE_liver disease [3]: 0
- HepSE_cholelithiasis [4]: 0
- HepSE_hepatomegaly [5]: 0
- HepSE_hepatic necrosis [6]: 0
- HepSE_bilirubinemia [7]: 0
- HepSE_liver function tests abnormal [8]: 0
- HepSE_jaundice [9]: 0
- HepSE_elevated liver function tests [10]: 0
- HepSE_liver fatty [11]: 0
- HepSE_cholecystitis [12]: 0
- HepSE_Combined Scores [13]: 0
- HepSE_cirrhosis [14]: 0

Structure (SMILES): COc1cc([C@@H]2c3cc4c(cc3[C@@H](O[C@@H]3O[C@@H]5CO[C@@H](c6cccs6)O[C@H]5[C@H](O)[C@H]3O)[C@H]3COC(=O)[C@H]23)OCO4)cc(OC)c1O [TENIPOSIDE]
- HepSE_hepatic failure [1]: 0
- HepSE_hepatitis [2]: 0
- HepSE_liver disease [3]: 0
- HepSE_cholelithiasis [4]: 0
- HepSE_hepatomegaly [5]: 0
- HepSE_hepatic necrosis [6]: 0
- HepSE_bilirubinemia [7]: 0
- HepSE_liver function tests abnormal [8]: 0
- HepSE_jaundice [9]: 0
- HepSE_elevated liver function tests [10]: 0
- HepSE_liver fatty [11]: 0
- HepSE_cholecystitis [12]: 0
- HepSE_Combined Scores [13]: 0
- HepSE_cirrhosis [14]: 0

Structure (SMILES): C[N+]1(C)[C@@H]2C[C@@H](OC(=O)C(O)(c3cccs3)c3cccs3)C[C@H]1[C@@H]1O[C@@H]12 [TIOTROPIUM]
- HepSE_hepatic failure [1]: 0
- HepSE_hepatitis [2]: 0
- HepSE_liver disease [3]: 0
- HepSE_cholelithiasis [4]: 0
- HepSE_hepatomegaly [5]: 0
- HepSE_hepatic necrosis [6]: 0
- HepSE_bilirubinemia [7]: 0
- HepSE_liver function tests abnormal [8]: 0
- HepSE_jaundice [9]: 0
- HepSE_elevated liver function tests [10]: 0
- HepSE_liver fatty [11]: 0
- HepSE_cholecystitis [12]: 0
- HepSE_Combined Scores [13]: 0
- HepSE_cirrhosis [14]: 0

Structure (SMILES): CCOC(=O)[C@H](CCc1ccccc1)N[C@@H](C)C(=O)N1CCC[C@H]1C(=O)O
- HepSE_hepatic failure [1]: 1
- HepSE_hepatitis [2]: 1
- HepSE_liver disease [3]: 0
- HepSE_cholelithiasis [4]: 0
- HepSE_hepatomegaly [5]: 0
- HepSE_hepatic necrosis [6]: 0
- HepSE_bilirubinemia [7]: 0
- HepSE_liver function tests abnormal [8]: 0
- HepSE_jaundice [9]: 1
- HepSE_elevated liver function tests [10]: 0
- HepSE_liver fatty [11]: 0
- HepSE_cholecystitis [12]: 0
- HepSE_Combined Scores [13]: 3
- HepSE_cirrhosis [14]: 0

Structure (SMILES): Cc1cccc(CN2CCN(C(c3ccccc3)c3ccc(Cl)cc3)CC2)c1 (configuration not stated) [MECLIZINE]
- HepSE_hepatic failure [1]: 0
- HepSE_hepatitis [2]: 0
- HepSE_liver disease [3]: 0
- HepSE_cholelithiasis [4]: 0
- HepSE_hepatomegaly [5]: 0
- HepSE_hepatic necrosis [6]: 0
- HepSE_bilirubinemia [7]: 0
- HepSE_liver function tests abnormal [8]: 0
- HepSE_jaundice [9]: 0
- HepSE_elevated liver function tests [10]: 0
- HepSE_liver fatty [11]: 0
- HepSE_cholecystitis [12]: 0
- HepSE_Combined Scores [13]: 0
- HepSE_cirrhosis [14]: 0

Structure (SMILES): OC[C@H]1O[C@@H](O)[C@@H](F)[C@@H](O)[C@@H]1O
- HepSE_hepatic failure [1]: 0
- HepSE_hepatitis [2]: 0
- HepSE_liver disease [3]: 0
- HepSE_cholelithiasis [4]: 0
- HepSE_hepatomegaly [5]: 0
- HepSE_hepatic necrosis [6]: 0
- HepSE_bilirubinemia [7]: 0
- HepSE_liver function tests abnormal [8]: 0
- HepSE_jaundice [9]: 0
- HepSE_elevated liver function tests [10]: 0
- HepSE_liver fatty [11]: 0
- HepSE_cholecystitis [12]: 0
- HepSE_Combined Scores [13]: 0
- HepSE_cirrhosis [14]: 0

Structure (SMILES): CC(=O)O[C@H]1C(=O)[C@@]2(C)[C@H]([C@H](OC(=O)c3ccccc3)[C@]3(O)C[C@H](OC(=O)[C@H](O)[C@@H](NC(=O)c4ccccc4)c4ccccc4)C(C)=C1C3(C)C)[C@]1(OC(C)=O)CO[C@@H]1C[C@@H]2O [PACLITAXEL]
- HepSE_hepatic failure ([1]; Liver): 0
- HepSE_hepatitis ([2]; Liver): 0
- HepSE_liver disease ([3]; Liver): 0
- HepSE_cholelithiasis ([4]; Liver): 0
- HepSE_hepatomegaly ([5]; Liver): 0
- HepSE_hepatic necrosis ([6]; Liver): 1
- HepSE_bilirubinemia ([7]; Liver): 0
- HepSE_liver function tests abnormal ([8]; Liver): 0
- HepSE_jaundice ([9]; Liver): 0
- HepSE_elevated liver function tests ([10]; Liver): 1
- HepSE_liver fatty ([11]; Liver): 0
- HepSE_cholecystitis ([12]; Liver): 0
- HepSE_Combined Scores ([13]; Liver): 2
- HepSE_cirrhosis ([14]; Liver): 0

Structure (SMILES): CC(=O)[C@H]1CC[C@H]2[C@@H]3CCC4=CC(=O)CC[C@]4(C)[C@H]3CC[C@]12C [PROGESTERONE]
- HepSE_hepatic failure [1]: 1
- HepSE_hepatitis [2]: 1
- HepSE_liver disease [3]: 0
- HepSE_cholelithiasis [4]: 0
- HepSE_hepatomegaly [5]: 0
- HepSE_hepatic necrosis [6]: 1
- HepSE_bilirubinemia [7]: 0
- HepSE_liver function tests abnormal [8]: 0
- HepSE_jaundice [9]: 1
- HepSE_elevated liver function tests [10]: 0
- HepSE_liver fatty [11]: 0
- HepSE_cholecystitis [12]: 0
- HepSE_Combined Scores [13]: 4
- HepSE_cirrhosis [14]: 0
